Read-outs that look alike come from different tables or passages of the source.
Experiments:
[1] = test system: EUFA30 cells (non-cancerous human fibroblasts); assay: Alamar Blue cytotoxicity assay, EUFA30; format: cell-based; conditions: Fibroblast; for inhibition at 300 µM: bracketed values, read-out: proliferation inhibition expressed as a percentage at highest concentration used; for IC50: read-out: IC50 based on survival of cells
Method: (§1) HeLa, U87, BICR18, EUFA30 cell lines were cultured in DMEM medium (Life Technology) supplemented with 10% fetal bovine serum (Life Technology) and 0.1% antibiotics, penicillin and streptomycin (Life Technology). Cells were grown in a humidified atmosphere of CO2/air (5/95%) at 37 °C.
(§2) Exponentially growing cells were seeded onto a 96-well plate at the density of 2 × 10^3 cells/well, cultured for 18 h, and treated with newly synthesized derivatives at concentrations 1–300 µM, or with DMSO as a control, for 24 or 48 h. Alamar Blue (Invitrogen) was added accordingly to manufacturer protocol. After 4 h, light emission at 590 nm was measured with excitation at 560 nm using a scanning multiwell spectrophotometer (DTX 880, Beckman Coulter). The experiments were carried out at least three times with three replicates for each inhibitor concentration. After background subtraction, inhibition rate, IC50 was calculated as the concentration of the component inhibiting cell growth by 50%. All the calculations were performed using Origin 9.0 software.

[2] = test system: HeLa cells (cervix adenocarcinoma); assay: Alamar Blue cytotoxicity assay, HeLa; format: cell-based; conditions: Homo sapiens; for inhibition at 300 µM: bracketed values, read-out: proliferation inhibition expressed as a percentage at highest concentration used; for IC50: read-out: IC50 based on survival of cells
Method: as §1, §2

[3] = test system: BICR18 cells (laryngeal squamous cell carcinoma); assay: Alamar Blue cytotoxicity assay, BICR18; format: cell-based; conditions: for inhibition at 300 µM: bracketed values, read-out: proliferation inhibition expressed as a percentage at highest concentration used; for IC50: read-out: IC50 based on survival of cells
Method: as §1, §2

[4] = test system: U87 cells (human primary glioblastoma); assay: Alamar Blue cytotoxicity assay, U87; format: cell-based; conditions: U-87 MG; for inhibition at 300 µM: bracketed values, read-out: proliferation inhibition expressed as a percentage at highest concentration used; for IC50: read-out: IC50 based on survival of cells
Method: as §1, §2

EUFA30 cells = assay: Annexin V-FITC / propidium iodide flow cytometry, EUFA30; format: cell-based, human; conditions: 24 h
Method: as §1
(§3) The Annexin V-FITC apoptosis detection kit (BD Biosciences) was used to detect apoptosis by flow cytometry. Cells were seeded at Petri dishes, cultured for 18 h with tested agents applied for 24 h. DMSO was added as the non-treated control and camptothecin (CPT) as the positive control. Subsequently, cells were washed with PBS, resuspended in binding buffer at a concentration of 2 × 10^6 cells/mL, and anti-Annexin V FITC-conjugated antibody and propidium iodide were added to 100 µL aliquots. The mixtures were incubated for 15 min at room temperature, supplemented with binding buffer to 500 µL and processed by BD FACSCalibur (BD Biosciences). Data were analyzed in Flowing Software version 2.5.1 (Flowing Software, http://www.uskonaskel.fi/flowingsoftware).

HeLa cells = assay: Annexin V-FITC / propidium iodide flow cytometry, HeLa; format: cell-based; conditions: 24 h; for number of necrotic cells: 200 µM, non-treated control 5.4%
Method: as §1, §3

[5] = test system: EUFA30, HeLa, BICR18, U87 cells; assay: Alamar Blue cytotoxicity assay, statements over all tested cell lines; format: cell-based; conditions: Homo sapiens, concentrations 1-300 µM, group range = lowest to highest value, read-out: IC50 across the tested cell lines
Method: as §1, §2

[6] = EUFA30, 200 µM, non-treated control 0.3%
[7] = EUFA30, 200 µM, non-treated control 0.4%
[8] = EUFA30, 200 µM, non-treated control 5.7%
[9] = EUFA30, positive control, 10 μM

| Structure (SMILES) | melting point | inhibition at 300 µM ([1]; EUFA30, 24 h) | inhibition at 300 µM ([1]; EUFA30, 48 h) | inhibition at 300 µM ([2]; 24 h) | inhibition at 300 µM ([2]; 48 h) | inhibition at 300 µM ([3]; BICR18, 24 h) | inhibition at 300 µM ([4]; U87, 24 h) | inhibition at 300 µM ([3]; BICR18, 48 h) | inhibition at 300 µM ([4]; U87, 48 h) | other results |
| --- | --- | --- | --- | --- | --- | --- | --- | --- | --- | --- |
| CN1C(=O)c2ccccc2C(=O)Nc2cc(Cl)c(Cl)cc21 [Compound 3f, 2,3-dichloro-5-methyl-5,12-dihydrodibenzo[b,f][1,4]diazocine-6,11-dione] |  |  | 19.1% |  | 7.8% | 47.5% |  | 7.6% | 29.9% | IC50 ([1]; EUFA30, 24 h of treatment): 320 ± 36 µM; IC50 ([2]; 24 h of treatment): 298 ± 11 µM; IC50 ([4]; U87, 24 h of treatment): 207 ± 23.6 µM; dead cell fraction: early apoptosis (EUFA30 cells; [6]): 6.9%; dead cell fraction: late apoptosis (EUFA30 cells; [7]): 1.6%; dead cell fraction: necrosis (EUFA30 cells; [8]): 4.3%; number of necrotic cells (HeLa cells): 15.3%; IC50 [5]: 93.7 to 323 µM |
| CN1C(=O)c2cc(Cl)c(Cl)cc2C(=O)Nc2ccccc21 [Compound 3g, 8,9-dichloro-5-methyl-5,12-dihydrodibenzo[b,f][1,4]diazocine-6,11-dione] |  | 41.6% | 29.5% | 43.1% | 5.3% |  |  | 12.3% | 2.4% | IC50 ([3]; BICR18, 24 h of treatment): 266 ± 27.6 µM; IC50 ([4]; U87, 24 h of treatment): 323 ± 23.9 µM; dead cell fraction: early apoptosis (EUFA30 cells; [6]): 5.0%; dead cell fraction: late apoptosis (EUFA30 cells; [7]): 1.5%; dead cell fraction: necrosis (EUFA30 cells; [8]): 6.8%; number of necrotic cells (HeLa cells): 8.8%; IC50 [5]: 93.7 to 323 µM |
| CN1C(=O)c2c(Cl)c(Cl)c(Cl)c(Cl)c2C(=O)Nc2ccccc21 [Compound 3h, 7,8,9,10-tetrachloro-5-methyl-5,12-dihydrodibenzo[b,f][1,4]diazocine-6,11-dione] |  |  |  |  |  |  |  |  |  | IC50 ([1]; EUFA30, 24 h of treatment): 144 ± 10.6 µM; IC50 ([1]; EUFA30, 48 h of treatment, N.A. = not active): 153 ± 4.1 µM; IC50 ([2]; 24 h of treatment): 132 ± 6 µM; IC50 ([2]; 48 h of treatment, N.A. = not active): 251 ± 5.1 µM; IC50 ([3]; BICR18, 24 h of treatment): 93.7 ± 5.2 µM; IC50 ([3]; BICR18, 48 h of treatment, N.A. = not active): 178 ± 3 µM; IC50 ([4]; U87, 24 h of treatment): 97.1 ± 13.2 µM; IC50 ([4]; U87, 48 h of treatment, N.A. = not active): 294 ± 22.4 µM; dead cell fraction: early apoptosis (EUFA30 cells; [6]): 9.0%; dead cell fraction: late apoptosis (EUFA30 cells; [7]): 1.8%; dead cell fraction: necrosis (EUFA30 cells; [8]): 15.6%; number of necrotic cells (HeLa cells): 15.3%; IC50 [5]: 93.7 to 323 µM |
| O=C1Nc2ccccc2N(Cc2ccccc2)C(=O)c2ccccc21 [Compound 3j, 5-benzyl-5,12-dihydrodibenzo[b,f][1,4]diazocine-6,11-dione] | 205 to 206 °C | 33.2% | 32.6% | 34.3% | 3.3% | 42.2% | 33% | 6.1% |  | IC50 [5]: > 300 µM |
| CN(C)CCN1C(=O)c2ccccc2C(=O)N(Cc2ccccc2)c2ccccc21 [Compound 3m, 5-benzyl-12-(2-(dimethylamino)ethyl)-5,12-dihydrodibenzo[b,f][1,4]diazocine-6,11-dione] | 154 to 155 °C | 42.2% | 9.9% | 23.4% |  | 30.1% | 36.8% | 4.7% | 4.1% |  |
| Nc1ccccc1N1C(=O)c2ccccc2C1=O [Compound 10, 2-(2-aminophenyl)isoindoline-1,3-dione] | 195 to 196 °C | 25.6% |  | 4.9% |  | 11.4% | 22.9% |  |  |  |
| CC[C@@]1(O)C(=O)OCc2c1cc1n(c2=O)Cc2cc3ccccc3nc2-1 [camptothecin, reference compound] |  |  |  |  |  |  |  |  |  | dead cell fraction: early apoptosis (EUFA30 cells; [9]): 4.1%; dead cell fraction: late apoptosis (EUFA30 cells; [9]): 6.8%; dead cell fraction: necrosis (EUFA30 cells; [9]): 18.7%; necrotic cells (HeLa cells; positive control, 10 μM): 31.2% |

Now from value to molecule, other results behind:

| melting point | Structure (SMILES) | inhibition at 300 µM ([1]; EUFA30, 24 h) | inhibition at 300 µM ([1]; EUFA30, 48 h) | inhibition at 300 µM ([2]; 24 h) | inhibition at 300 µM ([2]; 48 h) | inhibition at 300 µM ([3]; BICR18, 24 h) | inhibition at 300 µM ([4]; U87, 24 h) | inhibition at 300 µM ([3]; BICR18, 48 h) | inhibition at 300 µM ([4]; U87, 48 h) | other results |
| --- | --- | --- | --- | --- | --- | --- | --- | --- | --- | --- |
| 286 to 287 °C | O=C1Nc2ccccc2NC(=O)c2ccccc21 [Compound 3a, 5,12-dihydrodibenzo[b,f][1,4]diazocine-6,11-dione] | 21.2% | 9% | 20.7% | 1.5% | 7.1% | 17.6% |  |  |  |
| 230 °C (dec.) | O=C1Nc2ccc([N+](=O)[O-])cc2NC(=O)c2ccccc21 [Compound 3b, 2-nitro-5,12-dihydrodibenzo[b,f][1,4]diazocine-6,11-dione] | 31% | 18.6% | 33.2% | 4.7% | 2.2% | 10.4% |  |  |  |
| 156 to 157 °C | O=C(c1ccccc1)c1ccc2c(c1)NC(=O)c1ccccc1C(=O)N2 [Compound 3c, 2-benzoyl-5,12-dihydrodibenzo[b,f][1, 4]diazocine-6,11-dione] | 28.8% |  | 14.5% |  | 10% | 15% |  |  |  |
| 243 to 244 °C | O=C1Nc2ccccc2NC(=O)c2cc([N+](=O)[O-])ccc21 [Compound 3d, 8-nitro-5,12-dihydrodibenzo[b,f][1,4]diazocine-6,11-dione] | 9.2% | 4.2% | 23.4% | 3.9% | 25.1% | 27.5% | 2.5% |  |  |
| 206 to 207 °C | CN1C(=O)c2ccccc2C(=O)Nc2ccccc21 [Compound 3e, 5-methyl-5,12-dihydrodibenzo[b,f][1,4]diazocine-6,11-dione] | 31.6% | 17.5% | 19.8% | 5.7% | 22.7% | 34.1% |  |  |  |
| 241 to 242 °C | CN1C(=O)c2cscc2C(=O)Nc2ccccc21 [Compound 3i, 5-methyl-5,10-dihydrobenzo[b]thieno[3,4-f][1,4]diazocine-4,11-dione] | 29.4% | 1.5% | 14.8% | 1.6% | 24% | 36.6% |  | 2.8% |  |
| 242 to 243 °C | CCOC(=O)c1cc2c(cc1C(=O)OCC)C(=O)Nc1ccccc1NC2=O [Compound 3k, diethyl 6,11-dioxo-5,6,11,12-tetrahydrodibenzo[b,f][1,4]diazocine-8,9-dicarboxylate] | 36.7% |  | 28.2% |  | 16.8% | 37.2% | 5.6% | 3.1% |  |
| 265 to 266 °C | CN1C(=O)c2ccccc2C(=O)N(C)c2ccccc21 [Compound 3l, 5,12-dimethyl-5,12-dihydrodibenzo[b,f][1,4]diazocine-6,11-dione] | 38.1% | 19.5% | 29.5% | 2.8% | 22.1% | 39% |  |  |  |
| 244 to 245 °C | O=C1CCC(=O)Nc2ccccc2N1 [Compound 6, 1,3,4,6-tetrahydrobenzo[b][1,4]diazocine-2,5-dione] | 29.4% | 14% | 21.5% | 4.3% | 11.3% | 19.6% |  |  |  |

From paper PMC7356613, “Unsymmetrically-Substituted 5,12-dihydrodibenzo[b,f][1,4]diazocine-6,11-dione Scaffold—A Useful Tool for Bioactive Molecules Design” (Molecules, 2020)
